Measurements published in patent US11998602B2, “Methods for promoting myelination and for treating demyelinating diseases” (The Scripps Research Institute, priority 2018, dated 2024).

Assays:
[1] = system: primary mouse cortical neurons co-cultured with OPCs; assay: In vitro OL maturation assay, MBP-colocalization with co-cultured axons; type: cell-based, rat
Method: In vitro OL maturation assay. Cortical and hippocampal tissue was dissected from C57BL/6 mice at embryonic day 14 and dissociated in 0.5% Trypsin with 100 U/mL DNase I diluted in HBSS (+/+) for 10 min at 37° C. Reaction was stopped by supplementing to a final concentration of 10% v/v FBS, 100 μg/mL Soybean Trypsin Inhibitor and 10 U/mL DNase I. Cells were resuspended in plating media consisting of equal volumes of FCS, HBSS (+/+), High-Glucose DMEM with L-glutamine, and F-12 with L-glutamine, then plated onto acid pre-washed German glass coverslips coated with 50 μg/mL Poly-D-Lysine and 20 μg/mL Laminin at a density of 50,000 cells/cm^2. Cells were allowed to attach for 2 hrs and then coverslips were rinsed with PBS before being transferred to a 24-well plate containing 0.5 mL growth media consisting of: Neurobasal medium, B27 supplement (Gibco), 0.5× Glutamax (Thermo), 5 μg/mL gentamycin and 5 μM glutamic acid. Half of the cell media was replaced after 3 DIV with supplemental growth media not containing glutamic acid^47. After 5 DIV, rat-derived cortical OPCs were added to the neuronal culture at a density of 5,000 cells/cm^2. Co-culture media used to resuspend and plate OPCs consisting of a 1:3 mixture of neuronal growth supplement (as above) and oligodendrocyte differentiation media, containing DMEM/F-12 (with L-glutamine), insulin-free N2 supplement, 1× Glutamax, 1×MEM non-essential amino acids, 1× β-mercaptoethanol, 2 ng/mL PDGF and 5 μg/mL gentamycin. All drugs and taurine co-treatment were added once to culture upon plating of OPCs at the following concentrations: 0.5 μM benztropine, 1.0 μM miconazole, each with or without 2 mM taurine. Cultures were maintained by replacing half of the media every three days, maintaining an equivalent concentration of taurine throughout in appropriate wells. […] Co-localization was quantified within regions of interest delineated as the periphery of individual oligodendrocytes. The co-localization index (adapted from a previously described method^48) was calculated as total proportion of co-localized 3D surface area between Tuj1 (neuron) and oligodendrocyte (MBP) over total Tuj1 (neuronal process) area enclosed within each oligodendrocyte process tree as the selected region of interest (ROI, see FIG. 3B″). Mean colocalization values for each condition were normalized to the DMSO condition mean analyzed statistically using Prism software (GraphPad, v7) for two-way ANOVA comparisons (Drug Treatment×Taurine Supplement) with Tukey post-tests for statistical significance. […]

[2] = system: Rat primary optic nerve OPCs; assay: High content imaging assay of OPC differentiation (MBP, A2B5, DAPI cell counts); type: cell-based
Method: Rat primary optic nerve OPCs were isolated by panning (>99% A2B5^+) and cultured in poly-D-lysine (10 μg/ml)-coated TC dishes in OPC culture media (Neurobasal Media, Invitrogen) supplemented with B27-without vitamin A (Invitrogen), 1× non-essential amino acids, 1× Glutamax, 1× anti-anti, β-mercaptoethanol and PDGF-AA (50 ng/ml; Peprotech) at 37° C. with 5% CO2. The culture medium was replaced every 48 h and cells were collected before the confluency reached 60% to maintain a naive state. For differentiation, OPCs were plated at 1 million cells in one 10 cm petri-dish filled with differentiation media, which is identical to the culture media, but with PDGF-AA at 2 ng/ml. T3 and DMSO were used as the positive control and negative control, respectively. Five replicates of cells were collected at different times (0, 3, and 6 days) for metabolomics studies. High content imaging. For dose-response co-treatment experiments, black, clear-bottom 384-well plates (Greiner) were coated with poly-D-lysine (10 μg ml^−1 in PBS). miconazole and benztropine were added at 8 doses in differentiation media; 3-fold dilutions down from 10 μM. taurine was then added at 8 concentrations; 3-fold dilutions down from 20 mM. This 384-well format was also utilized for experiments combining benztropine (0.5 μM), miconazole (2 μM) or T3 (1 μM) with propargylglycine (0.1, 3, 10, 30 μM), reduced glutathione (1, 10, 30, 100 μM) or ascorbic acid ([…]). OPCs were then seeded at a density of 1,000 cells per well, and the plates were incubated at 37° C. with 5% CO2 for 6 days. For time course experiments, cells were seeded at a density of 5,000 cells per well in poly-D-lysine-coated 96-well plates. Cells were treated with DMSO (0.1%), benztropine (0.5 μM), miconazole (2 μM) or T3 (1 μM) on day 0, and taurine (20 mM) was added in combination at 0, 1 or 3 days post-drug treatment. The plates were incubated at 37° C. with 5% CO2 for 6 days. On day 6, cells were then fixed for 20 min with 4% formaldehyde solution and stained with mouse anti-Myelin Basic Protein (MBP) antibody (MAB382, Millipore) or anti-A2B5 antibody (MAB312, Millipore) in 3% BSA, 0.3% Triton X-100 with overnight incubation at 4° C. The cells were washed and incubated with secondary antibody (goat anti-mouse Alexa Fluor488) and DAPI (Invitrogen) for 1 h at room temperature. The cells were washed and plates were sealed and imaged using an Opera confocal imaging reader (Perkin Elmer) or a Cellomics Cell Insight imaging reader (Thermo). An air ×10 lens was used to capture 9 images per well at both wavelengths (488 and 365 nm), with each image representing a different unique locations field in a single well. For image analysis, DAPI-stained nuclei and MBP-positive or A2B5-positive cell bodies were detected using an algorithm that selects for positive cell bodies and nuclei within a range of fluorescent emission values and sizes as determined by fitting parameters to positive (T3, 1 μM) and negative controls (DMSO, 0.1%). The numbers of DAPI-positive objects were enumerated in experiments where cell counts were required. Numerical results from the analyzed images were later exported for analysis using Excel (Microsoft) and/or Genedata software.

`NCCS(=O)(=O)O` [taurine, 2-aminoethanesulfonic acid] was tested, and the “MBP-colocalization with axons, treatment alone vs. DMSO (Tukey post hoc)” value ([1]; 0.5 μM benztropine, 1.0 μM miconazole or 2 mM taurine alone, 14 days) was “no significant difference”, the “Index of MBP-colocalization with axons” value ([1]; 2 mM taurine in cultures treated with benztropine or miconazole, 14 days of neuron-OPC co-culture) was “significantly increase” and the “Enhancement of overall cell number compared to drug treatment alone” value ([2]; >2 mM taurine with miconazole or benztropine, 6 days) was “over 20%”. For the same molecule, the “Days of taurine addition with the most significant impact on MBP expression” value ([2]; dosing initiated at days 0 to 5, evaluated at day 6) was “between days 1 and 3”, the “Impact on MBP expression of taurine addition on day 0 compared with days 1 to 3” value ([2]; evaluated at day 6) was “significantly less efficacious” and the “Impact on number of residual immature A2B5+ OPCs” value ([2]; taurine added on day 0, 1 or 3 to basal or drug-induced conditions, read at day 3 or day 6) was “minimal, albeit statistically significant, impact”.
